Among the data in PubChem BioAssay AID330 (DTP/NCI, 2004) are T/C values, retold here.

For this assay, the system named is P388 leukemia ip, CD2F1 mice, survival T/C. Nature of the assay: NCI In Vivo Anticancer Drug Screen. Data for tumor model P388 Leukemia (intraperitoneal) in CD2F1 (CDF1) mice. Particulars: endpoint: median survival time, higher = longer survival. In outline:
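Mice carrying the transplanted tumor received test compound or vehicle. Survival was recorded in each group, and the value is the treated-group measurement divided by that of the vehicle-treated control group.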

Setting [1] is: dose: 100.0 mg/kg/injection, schedule: Q04DX002 (ip), vehicle: saline with Tween-80.
Setting [2] is: dose: 200.0 mg/kg/injection, schedule: Q04DX002 (ip), vehicle: saline with Tween-80.
The mark [3] stands for this setting: dose: 400.0 mg/kg/injection, schedule: Q04DX002 (ip), vehicle: saline with Tween-80.
The mark [4] stands for this setting: dose: 50.0 mg/kg/injection, schedule: Q01DX009 (ip), vehicle: saline.
Where [5] appears, read: dose: 100.0 mg/kg/injection, schedule: Q01DX009 (ip), vehicle: saline.
Where [6] appears, read: dose: 200.0 mg/kg/injection, schedule: Q01DX009 (ip), vehicle: saline.
Where [7] appears, read: dose: 50.0 mg/kg/injection, schedule: Q01DX009 (ip), vehicle: saline with Tween-80.
Where [8] appears, read: dose: 100.0 mg/kg/injection, schedule: Q01DX009 (ip), vehicle: saline with Tween-80.
The mark [9] stands for this setting: dose: 200.0 mg/kg/injection, schedule: Q01DX009 (ip), vehicle: saline with Tween-80.
[10] abbreviates: dose: 50.0 mg/kg/injection, schedule: Q01DX005 (ip), vehicle: saline with Tween-80.
[11] abbreviates: dose: 100.0 mg/kg/injection, schedule: Q01DX005 (ip), vehicle: saline with Tween-80.
The mark [12] stands for this setting: dose: 200.0 mg/kg/injection, schedule: Q01DX005 (ip), vehicle: saline with Tween-80.
[13] abbreviates: dose: 50.0 mg/kg/injection, schedule: Q01DX005 (ip), vehicle: Klucel (hydroxypropylcellulose) (HPC).
Where [14] appears, read: dose: 100.0 mg/kg/injection, schedule: Q01DX005 (ip), vehicle: Klucel (hydroxypropylcellulose) (HPC).
Setting [15] is: dose: 25.0 mg/kg/injection, schedule: Q01DX009 (ip), vehicle: saline with Tween-80.

Values joined by “and” are separate entries in the source; they are usually repeats but may differ in a detail not shown here. Equal values may be shown once. Inconclusive results and toxic doses are left out.

In the case of `CCCCNC(=S)NC(c1ccc(OC)cc1)C(CC)c1ccc(OC)cc1` (stereo not given), the T/C is 90 % of control under setting [1], 88 % of control under setting [2] and 90 % of control under setting [3].
As for `O=C(OC(c1ccccc1)(C(F)(F)F)C(F)(F)F)c1ccc(Cl)cc1`, the T/C is 92 % of control (dose: 100.0 mg/kg/injection, schedule: Q04DX002 (ip), vehicle: Klucel (hydroxypropylcellulose) (HPC)); 98 % of control (dose: 200.0 mg/kg/injection, schedule: Q04DX002 (ip), vehicle: Klucel (hydroxypropylcellulose) (HPC)); 97 % of control (dose: 400.0 mg/kg/injection, schedule: Q04DX002 (ip), vehicle: Klucel (hydroxypropylcellulose) (HPC)).
As to `O=C(CCCCC(=O)N1CCOCC1)N1CCOCC1`, the T/C (dose: 50.0 mg/kg/injection, schedule: Q01DX005 (ip), vehicle: saline) is 100 % of control; the T/C (dose: 100.0 mg/kg/injection, schedule: Q01DX005 (ip), vehicle: saline) was 101 % of control; the T/C (dose: 200.0 mg/kg/injection, schedule: Q01DX005 (ip), vehicle: saline) is 101 % of control.
For the compound `CCCCCCCC(=O)O[C@H]1[C@H]2[C@@H](CC1(C)C)C(=O)[C@]13O[C@H]1C(=O)[C@]1(CO1)[C@]23C`, the T/C is 118 % of control (dose: 2.2 mg/kg/injection, schedule: Q01DX009 (ip), vehicle: saline with Tween-80); 104 % of control and 122 % of control (dose: 5.0 mg/kg/injection, schedule: Q01DX009 (ip), vehicle: saline with Tween-80); 118 % of control (dose: 7.5 mg/kg/injection, schedule: Q01DX009 (ip), vehicle: saline with Tween-80); 95 % of control (dose: 10.0 mg/kg/injection, schedule: Q01DX009 (ip), vehicle: saline with Tween-80); 105 % of control (dose: 10.0 mg/kg/injection, schedule: Q01DX009 (ip), vehicle: saline).
For the compound `O=c1cc(O)nc2cn[nH]n12`, the T/C is 99 % of control under setting [4], 90 % of control under setting [5] and 101 % of control under setting [6].
`CCOC1N=C(c2ccccc2)c2cc(Cl)ccc2NC1=O` (stereo not given): the T/C (dose: 50.0 mg/kg/injection, schedule: Q01DX009 (ip), vehicle: Klucel (hydroxypropylcellulose) (HPC)) was 101 % of control; the T/C (dose: 100.0 mg/kg/injection, schedule: Q01DX009 (ip), vehicle: Klucel (hydroxypropylcellulose) (HPC)) is 95 % of control; the T/C (dose: 200.0 mg/kg/injection, schedule: Q01DX009 (ip), vehicle: Klucel (hydroxypropylcellulose) (HPC)) is 93 % of control.
Take `O=S(=O)(CCl)NCCCl`: the T/C runs as follows: under setting [7], 100 % of control; under setting [8], 106 % of control; under setting [9], 106 % of control.
Consider `CC(=O)C(F)(F)C(F)(F)C(F)(F)C(F)(F)C(C)=O`, for which the T/C was 99 % of control (dose: 60.0 mg/kg/injection, schedule: Q01DX005 (ip), vehicle: saline with Tween-80); 94 % of control (dose: 120.0 mg/kg/injection, schedule: Q01DX005 (ip), vehicle: saline with Tween-80); 103 % of control (dose: 240.0 mg/kg/injection, schedule: Q01DX005 (ip), vehicle: saline with Tween-80).
As to `ClC(Cl)(Cl)Sn1cccn1`, the T/C reads like this: under setting [7], 104 % of control; under setting [8], 97 % of control.
Turning to `Cc1nc(Cl)c(C)c(=O)[nH]1`, the T/C under setting [4] is 165 % of control and the T/C under setting [5] is 166 % of control.
As to `C=CC(O)CC#N` (stereo not given), the T/C by setting is: (dose: 18.75 mg/kg/injection, schedule: Q01DX009 (ip), vehicle: saline with Tween-80) 102 % of control; (dose: 37.5 mg/kg/injection, schedule: Q01DX009 (ip), vehicle: saline with Tween-80) 102 % of control; (dose: 75.0 mg/kg/injection, schedule: Q01DX009 (ip), vehicle: saline with Tween-80) 108 % of control.
Regarding `CN1CC2(C)CCCC(C)(C1)C2O` (stereo not given), the T/C is, setting by setting: under setting [10], 106 % of control; under setting [11], 98 % of control.
As for `O=c1c(Cc2ccccc2)c([O-])[n+](Cc2ccccc2)c(-c2ccccc2)n1-c1ccccc1`, the T/C reads like this: (dose: 60.0 mg/kg/injection, schedule: Q01DX005 (ip), vehicle: Klucel (hydroxypropylcellulose) (HPC)) 98 % of control; (dose: 120.0 mg/kg/injection, schedule: Q01DX005 (ip), vehicle: Klucel (hydroxypropylcellulose) (HPC)) 91 % of control; (dose: 240.0 mg/kg/injection, schedule: Q01DX005 (ip), vehicle: Klucel (hydroxypropylcellulose) (HPC)) 90 % of control.
With `C=C(C1=CC(=O)C(C)=C(OC(=O)C2(C)OC2C)C1=O)C(CC=C(C)C)OC(=O)/C(C)=C/C` (stereo not given), the T/C by setting is: (dose: 1.56 mg/kg/injection, schedule: Q01DX005 (ip), vehicle: Klucel (hydroxypropylcellulose) (HPC)) 97 % of control; (dose: 3.12 mg/kg/injection, schedule: Q01DX005 (ip), vehicle: Klucel (hydroxypropylcellulose) (HPC)) 97 % of control; (dose: 6.25 mg/kg/injection, schedule: Q01DX005 (ip), vehicle: Klucel (hydroxypropylcellulose) (HPC)) 99 % of control; (dose: 12.5 mg/kg/injection, schedule: Q01DX005 (ip), vehicle: Klucel (hydroxypropylcellulose) (HPC)) 99 % of control; (dose: 25.0 mg/kg/injection, schedule: Q01DX005 (ip), vehicle: Klucel (hydroxypropylcellulose) (HPC)) 99 % of control.
As for `CCc1nc(-c2ccccc2)nc2c1nc(C(C)C)n2Nc1ccccc1`, the T/C by setting is: (dose: 100.0 mg/kg/injection, schedule: Q01DX001 (ip), vehicle: saline with Tween-80) 104 % of control; (dose: 200.0 mg/kg/injection, schedule: Q01DX001 (ip), vehicle: saline with Tween-80) 93 % of control; (dose: 400.0 mg/kg/injection, schedule: Q01DX001 (ip), vehicle: saline with Tween-80) 89 % of control.
For the compound `C=C(C)CN(CCC#N)CC(=C)C`, the T/C under setting [10] was 102 % of control, the T/C under setting [11] was 105 % of control and the T/C under setting [12] was 101 % of control.
With `COc1ccc(-n2c(C)c(COC(C)=O)c(COC(C)=O)c2C)cc1`, the T/C (dose: 12.5 mg/kg/injection, schedule: Q01DX009 (ip), vehicle: saline) is 157 % of control and 163 % of control.
On to `Nc1cccc2c1C(=O)c1ccc(C(=O)O)cc1C2=O`, for which the T/C was 101 % of control under setting [13] and 104 % of control under setting [14].
Consider `CCCc1[nH]n(-c2cccc([N+](=O)[O-])c2)c(=O)c1N=Nc1ccc(Cl)cc1`, for which the T/C is 93 % of control under setting [4], 90 % of control under setting [5] and 87 % of control under setting [6].
Turning to `O=c1[nH]c(O)c(N=Nc2ccc([N+](=O)[O-])cc2[N+](=O)[O-])c(=O)[nH]1`, the T/C under setting [15] was 113 % of control; the T/C under setting [7] was 102 % of control (2×) and 114 % of control; the T/C under setting [8] is 103 % of control and 112 % of control; the T/C under setting [9] was 102 % of control and 111 % of control.
Consider `CC(C)[C@H](N)C(=O)NCCNC(=O)[C@@H](N)C(C)C`, for which the T/C was 91 % of control (dose: 60.0 mg/kg/injection, schedule: Q01DX005 (ip), vehicle: saline) and 98 % of control (dose: 120.0 mg/kg/injection, schedule: Q01DX005 (ip), vehicle: saline).
In the case of `O=[N+]([O-])c1ccc(Sc2ccncn2)c([N+](=O)[O-])c1`, the T/C is 91 % of control (dose: 12.5 mg/kg/injection, schedule: Q01DX009 (ip), vehicle: saline with Tween-80); 116 % of control under setting [15]; 123 % of control under setting [7]; 116 % of control under setting [8].
Take `NC(=S)n1nc(-c2ccccc2)c(N=Nc2cc(Cl)ccc2Cl)c1-c1ccccc1`: the T/C runs as follows: under setting [1], 89 % of control; under setting [2], 90 % of control; under setting [3], 110 % of control.
Take `CCOCCOCCSCc1ccccn1`: the T/C runs as follows: under setting [13], 109 % of control; under setting [14], 99 % of control; (dose: 200.0 mg/kg/injection, schedule: Q01DX005 (ip), vehicle: Klucel (hydroxypropylcellulose) (HPC)) 100 % of control.
Regarding `CC1(CO)CSC(Nc2ccc(F)cc2)=N1` (stereo not given), the T/C was 104 % of control under setting [7], 98 % of control under setting [8] and 104 % of control under setting [9].
Turning to `CC1(C)OC1(C(=O)C=[N+]=[N-])c1ccccc1` (stereo not given), the T/C (dose: 25.0 mg/kg/injection, schedule: Q01DX005 (ip), vehicle: saline with Tween-80) was 96 % of control; the T/C under setting [10] was 99 % of control; the T/C under setting [11] was 96 % of control; the T/C under setting [12] was 103 % of control.
Regarding `NCC(CC(=O)O)c1ccc(Cl)cc1` (stereo not given), the T/C under setting [13] was 94 % of control and the T/C under setting [14] is 93 % of control.
